The test system of series [1] is acid phosphatase (ACP). More on the design: method as in PMID 36835510. The settings on record: chronic exposure of daphnids; ref [30]; cited from earlier work.
For series [2], the system named is peptidase (PEP). The settings on record: cited from earlier work.
Series [3] deals with Daphnia magna. The settings on record: cited from earlier work.
In series [4] the test system is alkaline phosphatase (ALP). Also noted: method as in PMID 36835510. To be noted: chronic exposure of daphnids; ref [30]; cited from earlier work.
The test system of another series is D. magna. The settings on record: ref [21], cited from earlier work.
For series [5] the following is noted: cited from earlier work.
The test system of series [6] is Daphnia magna. Nature of the series: Feeding assay (ingestion of fluorescent microparticles). The series is classed as in vivo. The settings on record: neonates, 1 mg/L for 24 h. As for the experimental part:
After 24 h, twenty […] transferred in a 12-well plate with 6 mL OECD containing the carboxylate-modified polystyrene, fluorescent red microparticles (2.0 μm mean particle size) at a concentration of 13 mg/L. The animals were exposed to the microplastic for up to 90 min, and media was collected every 15 min to estimate the removed microparticles by fluorescence at Ex 560 Em 590 nm using a TECAN plate reader. The concentration of microparticles in the media was optimized to ensure an excess of microparticles for the accurate quantification of ingestion. Furthermore, we have extensively tested these particles, which show no toxicity to the […] for the short exposure periods used. We performed control experiments with neonates, as they would be more sensitive, for even up to 10 h to microplastics at even higher concentrations (up to 52 mg/L), and all animals from all experiments following the feeding assay were alive and healthy. Fluorescence was expressed to the amount of ingested microparticles using a standard curve. To confirm the ingestion of microparticles in the gut of […], animals were imaged with a stereoscope and fluorescence microscopy using the TRITC filter for carboxyl functionalized particles. […] The animals were fed daily with 2 mL of fresh algae (Chlamydomonas reinhardtii) with a concentration of 6 million cells/mL. […]

Series [7] deals with alkaline phosphatase (ALP). The settings on record: 1 mg/L. As to the method:
(§1) Chronic exposure was performed at 1 mg/L of each NSAID and their 1:1 mixture separately, which was selected as a non-lethal concentration. For enzyme activities in chronic and transgenerational exposures, neonates were cultured for two consecutive generations and following a 21-day recovery period (Figure 1B). […] Media and NSAIDs were renewed twice a week. Although the concentration of NSAIDs was not measured throughout the exposure, their renewal twice a week was sufficient to exert their action. […] Daphnids were fed daily with 2 mL fresh algae (C. reinhardtii) with a concentration of 6 million cells/mL, and a seaweed extract (Ascophylum nodosum) was supplemented only on the days of media change.
(§2) Five 7, 14, and 21-day-old animals were used per biological replicate and homogenized in 0.5 mL ddH2O using a pestle homogenizer. The homogenate was cleared by centrifugation (12,000× g for 5 min at 5 °C), and the clear supernatant was collected and used to assess the enzyme activity as described elsewhere. 200 μL appropriately diluted sample in buffer was assessed for the activity of phosphatases (in 100 mM acetic acid pH 4.5 for acid phosphatase or 100 mM boric acid pH 9.8 for alkaline phosphatase) using 50 μL of the substrate p-nitrophenyl phosphate (8 mM) and monitoring the production of p-nitrophenol at 405 nm after its alkalinization (with 50 μL 4M NaOH). In addition, the activities of β-galactosidase and lipase were measured with the same experimental conditions by the generation of nitrophenol from the catalysis of o-nitrophenyl-β-galactoside or p-nitrophenyl butyrate, respectively, but in phosphate buffer pH 7.2. Glutathione-S-transferase (GST) activity was assessed by the reaction of reduced glutathione with 1-chloro-2,4-dinitrobenzene. 200 μL appropriately diluted sample in phosphate buffer pH 7.2 was mixed with 50 μL 2 mM CDNB, and 6 mM reduced glutathione, and the formation of the complex was measured continuously at 340 nm and converted to units of activity with the extinction coefficient. Protein was quantified by an ultrasensitive Bradford protocol to normalize the results.

For another series, the system named is β-galactosidase (β-gal). To be noted: 1 mg/L. As for the experimental part:
as §1, §2

Series [8] has as its system glutathione-S-transferase (GST). The settings on record: 1 mg/L. As to the method:
as §1, §2

Series [9] relates to GST. More on the design: method as in PMID 32259738. To be noted: exposure for 14 days; ref [71]; cited from earlier work.
The next series deals with lipase (LIP). In words: Lipase activity in daphnid homogenate after chronic/transgenerational exposure. In kind it is in vivo, Daphnia magna.
Series [10] concerns GST. The settings on record: 28-day exposure to 25 mg/L; ref [53]; cited from earlier work.
Series [11] concerns acid phosphatase (ACP). Nature of the series: Acid phosphatase activity in daphnid homogenate after chronic/transgenerational exposure. In kind it is in vivo, Daphnia magna.
Series [12] has as its system Daphnia magna. In words: Acute toxicity (immobilization) of neonates, 24 h toxicity curves.
In series [13] the test system is peptidase (PEP). Nature of the series: Peptidase activity in daphnid homogenate after chronic/transgenerational exposure. In kind it is in vivo, Daphnia magna.
For series [14], the system named is glutathione-S-transferase (GST). Also noted: method as in PMID 32806449. To be noted: intermediate concentrations (1.2 and 6 μg/L); ref [67]; cited from earlier work.
Where [15] appears, read: 1 mg/L, age 7 days, first generation.
Setting [16] is: 1 mg/L, age 14 days, first generation.
Where [17] appears, read: 1 mg/L, age 21 days, 2nd generation.
Where [18] appears, read: 1 mg/L, age 21 days, first generation.
The mark [19] stands for this setting: age 21 days, 3rd generation recovery in clean OECD media after two generations at 1 mg/L.
The mark [20] stands for this setting: neonates, 24 h exposure, immobilization.

Values after ≈ are worked out from the molar mass of the structure shown. Like-named read-outs stand apart in the source and are kept apart here.

In the case of `O=C(O)Cc1ccccc1Nc1c(Cl)cccc1Cl` [Diclofenac], in the series with acid phosphatase (ACP) [1], the “effect on activity of ACP” value is reported as “reduced”. In addition, the “effect on activity of PEP” value with peptidase (PEP) [2] (chronic exposure of daphnids, ref [30]) is on record as “increasing”. Moreover, in the series on Daphnia magna [3] (neonates of D. magna, ref [67],[68]), the “effect on feeding rate” value was “reduce the feeding rate”. Further, the “effect on activity of ALP” value in series [4] is reported as “reduced”.

On to `CC(C)Cc1ccc(C(C)C(=O)O)cc1` (stereo not shown) [Ibuprofen], for which the survival entry with D. magna (neonates exposed to 20 mg/L and 40 mg/L for 14 days) was “unaffected”. Moreover, in the series with D. magna (neonates exposed to 80 mg/L for 14 days), the reduction of survival is given as 19%. Further, the average strength maintained in series [5] (for 5 months, ref [39]) was more than 90%. In addition, the time stable in series [5] (room temperature, ref [37],[38]) is listed as 15 days. In addition, in the series with Daphnia magna [6], the “reduction of feeding rate compared to DMSO” value is 30%. Besides, the ALP enzyme activity in series [7] (age 7 days, first generation) is 6.55 ± 0.26 units/mg protein; in series [7] (age 14 days, first generation), 2.63 ± 0.14 units/mg protein; in series [7] (age 21 days, 2nd generation) it was 3.27 ± 0.15 units/mg protein. The “change of ALP activity compared with DMSO” value in series [7] (age 21 days, 2nd generation) was −10%. Moreover, the “change of β-gal activity compared with DMSO” value was −17% in the series on β-galactosidase (β-gal) (age 7 days, first generation) and −17% in the series on β-galactosidase (β-gal) (age 21 days, 2nd generation). Besides, the β-gal enzyme activity with β-galactosidase (β-gal) (age 7 days, first generation) is 1.26 ± 0.06 units/mg protein; in the series with β-galactosidase (β-gal) (age 14 days, first generation), 2.08 ± 0.75 units/mg protein; with β-galactosidase (β-gal) (age 21 days, 2nd generation) it was 3.93 ± 0.22 units/mg protein; with β-galactosidase (β-gal) (age 21 days, first generation) it was 5.13 ± 0.25 units/mg protein. In addition, the GST enzyme activity amounted to 95.6 ± 10 munits/mg protein in [8] (age 7 days, first generation); 151.7 ± 11.7 munits/mg protein in series [8] (age 14 days, first generation); 123.5 ± 2.1 munits/mg protein in series [8] (age 21 days, 2nd generation); 67.6 ± 4.4 munits/mg protein in [8] (age 21 days, first generation). For the same molecule, the “change of GST activity compared with DMSO” value in series [8] (age 21 days, 2nd generation) is “+18%”. The “effect on activity of GST” value in the series with GST [9] was “reduced the activity of GST”; in the series with GST [10], “increase in the activity of GST”. The LIP enzyme activity with lipase (LIP) (setting [15]) turned out to be 123.76 ± 2.26 units/mg protein; in the series on lipase (LIP) (setting [16]) it was 148.12 ± 37.62 units/mg protein; in the series with lipase (LIP) (setting [17]) it was 47.53 ± 1.66 units/mg protein; with lipase (LIP) (setting [18]), 78.43 ± 4.27 units/mg protein; with lipase (LIP) (setting [19]), 53.32 ± 6.51 units/mg protein. For the same molecule, the “change of LIP activity compared with DMSO” value in the series on lipase (LIP) (setting [15]) is listed as −10%; in the series with lipase (LIP) (setting [17]), −28%. Further, the ACP enzyme activity was found to be 8.14 ± 0.33 units/mg protein in the series on acid phosphatase (ACP) [11] (setting [15]), 2.78 ± 0.21 units/mg protein in the series with acid phosphatase (ACP) [11] (setting [17]), 3.09 ± 0.04 units/mg protein with acid phosphatase (ACP) [11] (setting [18]) and 3.24 ± 0.47 units/mg protein in the series on acid phosphatase (ACP) [11] (setting [19]). Further, in the series on Daphnia magna [12] (Daphnia magna, 24 h), the EC50 (as a rule, the concentration giving half of the maximal effect) came to 17.8 µg/mL (≈ 86.3 µM). Moreover, the EC1 in the series with Daphnia magna [12] (setting [20]) is given as 8.62 mg/L. In the series on Daphnia magna [12] (setting [20]), this molecule had an EC5 of 11.19 mg/L. Also, the concentration for an effect of 10% (EC10) (usually the concentration needed for an effect of 10%) in the series on Daphnia magna [12] (setting [20]) worked out at 12.59 µg/mL (≈ 61 µM). The EC20 – broadly, the concentration at which the effect reaches the 20% level – in the series with Daphnia magna [12] (setting [20]) was 14.3 µg/mL (≈ 69.3 µM). In addition, the PEP enzyme activity worked out at 29.54 ± 7.34 units/mg protein in the series with peptidase (PEP) [13] (setting [15]), 1.93 ± 0.27 units/mg protein with peptidase (PEP) [13] (setting [16]), 10.52 ± 1.39 units/mg protein in the series on peptidase (PEP) [13] (setting [18]) and 4.61 ± 0.35 units/mg protein in the series on peptidase (PEP) [13] (setting [19]).

As to `CC(=O)Oc1ccccc1C(=O)O` [acetylsalicylic acid], the “effect on activity of PEP” value with peptidase (PEP) [2] (acute exposure of daphnids, ref [28]) was “decreased”.

With `CC(C(=O)O)c1cccc(C(=O)c2ccccc2)c1` (stereo not shown) [ketoprofen], the effect on feeding result in the series with Daphnia magna [3] (D5 daphnids, ref [67]) was “did not affect the feeding”. Further, in series [14], the “effect on activity of GST” value is on record as “increased the activity of GST”.

The record behind these values is publication PMC10145367, “Acute and Transgenerational Effects of Non-Steroidal Anti-Inflammatory Drugs on Daphnia magna” (Toxics, 2023).
